Test results: patent publication US20230150924A1, “NOVEL COMPOUND HAVING CANCER METASTASIS INHIBITORY ACTIVITY, PREPARATION METHOD THEREFOR, AND PHARMACEUTICAL COMPOSITION FOR INHIBITING CANCER METASTASIS AND INVASION OR TREATING COLORECTAL CANCER, COMPRISING COMPOUND” (CELLGENTEK CO., LTD., priority 2019, published 2023)

Key:
KAI1 promoter = KAI1 promoter luciferase reporter assay in transfected Caco2 cells; format: cell-based, human; settings: Homo sapiens, Caco-2, 16 h, 1 μM compound, 16 hours, transfected Caco2 cells, luciferase activity relative to DMSO control (=1); read-out: Relative KAI promoter activity
Experimental: Experiments were conducted to evaluate the metastasis-related promoter activity-increasing effects of the compounds according to the present invention. Specifically, the KAI1 promoter reporter vector was used. In this case, the pRL-TK vector, a vector expressing renilla luciferase, was used as an internal control indicating the transfection efficiency in each transfected well.
First, 24 hours before transfection, 2×10^6 human colon cancer cell line, Caco2) cells were cultured in 10 ml of DMEM containing 10% FBS and 1% penicillin/streptomycin on a 100-mm-diameter plate, and then transformed with 5 μg of a pRL-TK vector mixture containing a transfection reagent and the KAI1 promoter, and then cultured in a 5% CO2 incubator at 37° C. for 48 hours. Thereafter, the adherent cells were detached using trypsin and counted using a hemacytometer, and then 5×10^3 transfected Caco2 cells in 100 μl of DMEM containing 10% FBS and 1% penicillin/streptomycin were seeded into each well of a 96-well plate and cultured in a 5% CO2 incubator at 37° C. for 24 hours. Next, 1 μM of each of the 305 compounds prepared in Examples 1 to 305 was added to each well, and after 16 hours, 100 μl of a lysis buffer for analysis containing a luciferase substrate was added, and the cells were lysed with stirring for 20 minutes. After completion of lysis, the cells were measured for luciferase activity using a luciferase reporter assay system (Promega, USA). […] In addition, data were analyzed at a significance level of p<0.05 by one-way ANOVA (Tukey's HSD), and SPSS 17.0 (Chicago, USA) statistical program was used. In Table 14 to 20, PHA is the PHA-665752, and KIT is KITENIN.

[1] = test system: invasion of colorectal cancer cells; assay: In vivo relative invation (invasion; EV and KITENIN controls, no method described); settings: relative to EV (=1); KIT = KITENIN

SMILES | fold induction at 1 µM (KAI1 promoter) | In vivo relative invation [1]
COc1ccc(NC(=O)COc2ccccc2C(=O)NCC(=O)c2ccccc2)cc1F [Example 207, 2-(2-((3-fluoro-4-methoxyphenyl)amino)-2-oxoethoxy)-N-(2-oxo-2-phenylethyl)benzamide] | 1.43 | 1.036
O=C(CNC(=O)c1cccc(CN2CCN(c3ccc([N+](=O)[O-])cc3)CC2)c1)c1ccccc1 [Example 238, 3-((4-(4-nitrophenyl)piperazin-1-yl)methyl)-N-(2-oxo-2-phenylethyl)benzamide] | 1.6 | 1.12
O=C(CNC(=O)c1ccccc1OC1CCN(C(=O)c2ccc(F)cc2)CC1)c1ccccc1 [Example 154, 2-((1-(4-fluorobenzoyl)piperidin-4-yl)oxy)-N-(2-oxo-2-phenylethyl)benzamide] | 1.05 | 1.173
C=CC(=O)N1CCC(Oc2ccccc2C(=O)NCC(=O)c2ccccc2)CC1 [Example 160, 2-((1-acryloylpiperidin-4-yl)oxy)-N-(2-oxo-2-phenylethyl)benz amide] | 1.05 | 1.067
O=C(CNS(=O)(=O)Cc1ccccc1)c1ccc(N2CCOCC2)cc1 [Example 149, N-(2-(4-morpholinophenyl)-2-oxoethyl)-1-phenylmethanesulfonamide] | 1.07 | 1.261
O=C(CNC(=O)c1cccc(CN2CCc3ccccc3C2)c1)c1ccccc1 [Example 232, 3-((3,4-dihydroisoquinolin-2 (1H)-yl)methyl)-N-(2-oxo-2-phenylethyl)benzamide] | 1.23 | 1.125
CC(C)(C)C(=O)NCC(=O)c1ccccc1 [Example 24, N-(2-oxo-2-phenylethyl)pivalamide] | 0.84 | 1.128
C=CC(=O)NCC(=O)c1ccc(N(C)C)cc1 [Example 95, N-(2-(4-(dimethylamino)phenyl)-2-oxoethyl)acrylamide] | 1.21 | 1.16
O=C(CNC(=O)c1ccccc1OC1CCN(C(=O)c2cccc(OC(F)(F)F)c2)CC1)c1ccccc1 [Example 200, N-(2-oxo-2-phenylethyl)-2-((1-(3-(trifluoromethoxy)benzoyl)piperidin-4-yl)oxy)benzamide] | 1.01 | 1.074
Cc1ccc(S(=O)(=O)N2CCC(Oc3ccccc3C(=O)NCC(=O)c3ccccc3)CC2)cc1 [Example 185, N-(2-oxo-2-phenylethyl)-2-((1-tosylpiperidin-4-yl)oxy)benzamide] | 1.12 | 1.114
O=C(CNC(=O)c1cccs1)c1ccc(Cl)cc1 [Example 58, N-(2-(4-chlorophenyl)-2-oxoethyl)thiophene-2-carboxamide] | 0.91 | 1.244
COc1cc(C)ccc1NC(=O)COc1ccccc1C(=O)NCC(=O)c1ccccc1 [Example 206, 2-(2-((2-methoxy-4-methylphenyl)amino)-2-oxoethoxy)-N-(2-oxo-2-phenylethyl)benzamide] | 1.05 | 1.11
O=C(CNC(=O)c1ccccc1OC1CCN(C(=O)C2CCC2)CC1)c1ccccc1 [Example 167, 2-((1-(cyclobutanecarbonyl)piperidin-4-yl)oxy)-N-(2-oxo-2-phenylethyl)benzamide] | 1.04 | 1.159
CC(Oc1ccccc1)C(=O)NCC(=O)c1cccnc1 (stereo not shown) [Example 131, N-(2-oxo-2-(pyridin-3-yl)ethyl)-2-phenoxypropanamide] | 1.19 | 1.293
CN(C)c1ccc(C(=O)CNS(=O)(=O)c2ccccc2)cc1 [Example 109, N-(2-(4-(dimethylamino)phenyl)-2-oxoethyl)benzenesulfonamide] | 2.89 | 0.9054
CCN(Cc1cccc(C(=O)NCC(=O)c2ccccc2)c1)c1ccccc1 [Example 239, 3-((ethyl(phenyl)amino)methyl)-N-(2-oxo-2-phenylethyl)benzamide] | 1.08 | 1.135
O=C(CNC(=O)c1ccccc1OC1CCN(C(=O)c2ccc(F)cc2Cl)CC1)c1ccccc1 [Example 194, 2-((1-(2-chloro-4-fluorobenzoyl)piperidin-4-yl)oxy)-N-(2-oxo-2-phenylethyl)benzamide] | 1.01 | 1.259
O=C(CNC(=O)c1cc(Cl)cc(Cl)c1)c1ccccc1 [Example 36, 3,5-dichloro-N-(2-oxo-2-phenylethyl)benzamide] | 1.16 | 1.056

SMILES | fold induction at 1 µM (KAI1 promoter) | In vivo relative invation [1]
CN(C)c1ccc(C(=O)CNC(=O)c2cccc(Cl)c2Cl)cc1 [Example 118, 2,3-dichloro-N-(2-(4-(dimethylamino)phenyl)-2-oxoethyl)benzamide] | 1.74 | 0.7681
O=C(CNC(=O)c1ccccc1OC1CCN(C(=O)C2CC2)CC1)c1ccccc1 [Example 166, 2-((1-(cyclopropanecarbonyl)piperidin-4-yl)oxy)-N-(2-oxo-2-phenylethyl)benzamide] | 1.01 | 1.094
CCCCN(C)Cc1cccc(C(=O)NCC(=O)c2ccccc2)c1 [Example 246, 3-((butyl (methyl)amino)methyl)-N-(2-oxo-2-phenylethyl)benzamide] | 1.88 | 1.148
CN(C)c1ccc(C(=O)CNC(=O)c2ccc(F)cc2F)cc1 [Example 105, N-(2-(4-(dimethylamino)phenyl)-2-oxoethyl)-2,4ifluorobenzamide] | 1.25 | 1.079
CN(C)c1ccc(C(=O)CNC(=O)c2cccc(C(F)(F)F)c2)cc1 [Example 113, N-(2-(4-(dimethylamino)phenyl)-2-oxoethyl)-3-(trifluoromethyl)benzamide] | 1.4 | 1.167
CC(C)(C)C(=O)N1CCC(Oc2ccccc2C(=O)NCC(=O)c2ccccc2)CC1 [Example 179, N-(2-oxo-2-phenylethyl)-2-((1-pivaloylpiperidin-4-yl)oxy)benzamide] | 0.97 | 1.081
CN(C)c1ccc(C(=O)CNC(=O)c2ccccc2F)cc1 [Example 90, N-(2-(4-(dimethylamino)phenyl)-2-oxoethyl)-2-fluorobenzamide] | 1.88 | 1.124
O=C(CNC(=O)c1cccc(Cl)c1Cl)c1ccc(Cl)cc1 [Example 80, 2,3-dichloro-N-(2-(4-chlorophenyl)-2-oxoethyl)benzamide] | 0.86 | 1.183
CC(C)(C)C(=O)NCC(=O)c1ccc(Cl)cc1 [Example 66, N-(2-(4-chlorophenyl)-2-oxoethyl)pivalamide] | 0.87 | 1.168
COc1cccc(C(=O)CNC(=O)c2cccc(CN(C)Cc3ccccc3)c2)c1 [Example 286, 3-((benzyl (methyl)amino)methyl)-N-(2-(3-methoxyphenyl)-2-oxoethyl)benzamide] | 1.43 | 1.233
O=C(CNC(=O)c1ccccc1CN1CCCc2ccccc21)c1ccccc1 [Example 297, 2-((3,4-dihydroquinolin-1(2H)-yl)methyl)-N-(2-oxo-2-phenylethyl)benzamide] | 1.33 | 1.231
O=C(CNC(=O)c1ccccc1OC1CCN(C(=O)CCc2ccccc2)CC1)c1ccccc1 [Example 159, N-(2-oxo-2-phenylethyl)-2-((1-(3-phenylpropanoyl)piperidin-4-yl)oxy)benzamide] | 0.99 | 1.059
Cc1ccccc1C(=O)NCC(=O)c1ccc(N(C)C)cc1 [Example 96, N-(2-(4-(dimethylamino)phenyl)-2-oxoethyl)-2-methylbenzamide] | 2.23 | 1.141
CC(C)CCNC(=O)COc1ccccc1C(=O)NCC(=O)c1ccccc1 [Example 229, 2-(2-(isopentylamino)-2-oxoethoxy)-N-(2-oxo-2-phenylethyl)benzamide] | 1.06 | 1.245
COc1cc(OC)cc(C(=O)NCC(=O)c2ccc(Cl)cc2)c1 [Example 85, N-(2-(4-chlorophenyl)-2-oxoethyl)-3,5imethoxybenzamide] | 0.96 | 1.206
CCCNC(=O)COc1ccccc1C(=O)NCC(=O)c1ccccc1 [Example 228] | 0.982 | 1.278
CN(C)C(=O)N1CCC(Oc2ccccc2C(=O)NCC(=O)c2ccccc2)CC1 [Example 180, N,N-dimethyl-4-(2-((2-oxo-2-phenylethyl)carbamoyl)phenoxy) piperidine-1-carboxamide] | 1.09 | 1.253
